How the values were obtained:
[1] = test system: human DCs derived from monocytes; test: In vitro internalization of fluorescent ligands by human DCs derived from monocytes (flow cytometry); assay type: cell-based
Experimental: DCs were prepared from monocytes as described previously (29) with a change in the culture media. Briefly, mononucleated cells were isolated from heparinized leukoplatelet layers (“buffy coats”) from healthy adult donors by adhesion on plastic cell culture dishes in RPMI 1640 medium supplemented with 10% human AB serum, glutamine and antibiotics for 60 minutes. Non-adhering cells were removed by 3 gentle washings with the medium. The adhering monocytes were cultured in X-VIVO 15 medium (Cambrex Bio Sciences, Paris, France) supplemented with 1% human AB serum and antibiotics and in the presence of 500 IU/ml of recombinant human interleukin-4 (rhIL-4), R&D Systems (Lille, France) and 1,000 IU/ml of recombinant human granulocyte macrophage colony-stimulating factor (rhGM-CSF), Immunotools (Friesoythe, Germany). Half of the medium, comprising all the supplements, was replaced every two days. After culture for 5 days, the non-adhering cells and those with little adhesion, corresponding to the fraction enriched in DC, were harvested, washed and used for subsequent experiments.
Whole recombinant human FVIII (1,000 IU, Kogenate, Bayer) or B domain-deleted recombinant human FVIII (FVIII-BDD) (1,000 IU, Refacto, Wyeth) were solubilized in water and dialyzed against bicarbonate buffer (pH 9.2) containing CaCl2, 5 mM at 4° C., followed by coupling to fluorescein 5-isothiocyanate (isomer I, Sigma-Aldrich, Saint Quentin Fallavier, France) for 7-8 hours at 4° C. The labelled FVIII was then dialyzed against RPMI 1640 medium to remove non-coupled FITC. The FVIII-FITC was quantified by the Bradford method using bovine serum albumin as the standard.
The DCs obtained in Example 1 (0.4×10^5 cells/well of a 96-well plate with 100 μl/well) were incubated with various doses (0.029, 0.057, 0.143 and 0.358 μM) of fluorescent conjugated ligands (FVIII-FITC, BDD-FVIII-FITC) obtained in Example 2 in X-VIVO medium for 0, 15, 60 and 120 min at 4° C. or at 37° C. After the incubation period, the cells were washed with cold PBS and analyzed by flow cytometry. To investigate the involvement of receptors in the internalization, the cells were preincubated for 30 min at 37° C. with […] and 1 mg/ml of mannan (Sigma-Aldrich, Saint Quentin Fallavier, France) before the addition of ligands conjugated to fluorescein. In addition to FVIII-FITC and FVIII-BDD-FITC, human α2-macroglobulin-MA (α2M) conjugated to FITC from Biomac (Leipzig, Germany), dextran-FITC (molecular weight 40,000) from Molecular Probes (Leiden, The Netherlands) and Lucifer yellow (LY-CH) from Sigma-Aldrich were used. The investigation of the internalization of FVIII was also carried out in the presence of 20 μg/ml of anti-mannose receptor monoclonal antibody (PAM-1, isotype IgG1) or anti-DC-SIGN monoclonal antibody ((AZN-D1, isotype IgG1) or mouse IgGλ,k conjugated to PE-Cy (BD Pharmingen, France). To investigate whether DC-SIGN is involved in the endocytosis of FVIII, the B lymphocyte line HD-420 transformed by wild-type EBV and transfected with DC-SIGN or not transfected was incubated with various concentrations of FVIII-FITC (0, 0.036, 0.072 and 0.143 μM) for 2 hours in RPMI 1640 medium supplemented with 10% FCS (foetal calf serum) and antibiotics. The analysis was carried out as for the DCs.

[2] = test system: D9E9 (T cell clone specific for FVIII); test: In vitro activation of FVIII-specific T cell clone D9E9 (IFN-gamma production); assay type: cell-based, human
Experimental: After washing, the DCs of Example 1 were resuspended in DMEM:F12 (1:1) medium containing 10% FCS and 10,000 DCs were introduced into each well of a 96-well cell culture plate with a round base. After incubation with mannan (1 mg/ml) in each well for 30 min, the DCs were cultured with 5,000 D9E9 (T cell clone specific for FVIII) in DMEM:F12 (1:1) medium containing 10% FCS and 20 U/ml of rhIL-2 with various doses of whole FVIII or FVIII-BDD (10, 8, 6, 4, 2 μg/ml) for 20 hours at 37° C. Like the D9E9 cells, the LE2E9 and BO2C11 lines of B cells transformed by EBV were cultured in the presence of 10 μg/ml of whole FVIII or FVIII-BDD. The control conditions were maintained in the absence of FVIII, D9E9 or DCs. As a negative control, hrFIX (Benefix, Baxter) was incubated with the cells at isomolar concentrations of FVIII. The supernatants were harvested at the end of the incubation period and tested for their production of IFNγ using the human IFN-γ Duo Set (DY285, R&D Systems) in accordance with the manufacturer's instructions.

[3] = in the presence of mannan, FIG. 2d

Substance: mannan
- neutralizing effect on the internalization of the antigen (dose dependence) ([1]; FVIII, FVIII-BDD and dextran, FIG. 2e): proportional to the dose
- inhibition of internalization of α2M ([1]; excess of RAP or mannan, FIG. 2f): no effect
- blocking of internalization of dextran [1, 3]: 80%
- effect on internalization of Lucifer yellow (ly) [1, 3]: not affected
- inhibition of endocytosis of FVIII-BDD ([1]; mannan 1 mg/ml, p<0.05): 41.3±17.2%
- inhibition of endocytosis of whole FVIII ([1]; mannan 1 mg/ml, p<0.05): 35.0±10.0%
- saturation concentration for inhibition of internalization ([1]; similar for FVIII, FVIII-BDD and dextran, FIG. 2e): 100 µg/mL
- reduction of endocytosis of FVIII by the human DCs ([1]; summary statement in Example 5): up to 40%
- inhibition of FVIII-induced activation of D9E9 cells ([2]; DCs preincubated with mannan (1 mg/ml), FIG. 4b (B)): up to 84%
- activation of D9E9 cells by autologous B cells pulsed with FVIII, LE2E9 ([2]; in presence of mannan, FIG. 4b (C)): does not prevent activation

— US20090317373A1, “Inhibition of the Anti-FVIII Immune Response” (Institut National De La Sante Et De La Recherche Medicale, priority 2005, published 2009)
